Experimental data taken from patent publication US20010034454A1, “Description anti-mitotic agents which inhibit tubulin polymerization” (BYLOR UNIVERSITY AND ARIZONA DESEASE CONTROL RESEARCH …, priority 1998, published 2001).
In brackets after ≈: the same amount, converted by molar mass. Where two headings read alike, the source gives them in different places.

How the values were obtained:
SW1736 = assay: Human cancer cell line studies, SW1736; type: cell-based; conditions: Thyroid ca SW1736
Procedure: (§1) The assay used is described in Monks et al. Briefly, the cell suspensions, diluted according to tho particular cell type and the expected target cell density (5,000-40,000 cells per well based on cell growth characteristics), were added by pipet (100 μl) to 96-well microtiter plates. Inoculates were allowed a preincubation time of 24-28 hours at 37° C. for stabilization. Incubation with the inhibitor compounds lasted for 48 hours in 5% CO2 atmosphere and 100% humidity. Determination of cell growth was done by in situ fixation of cells, followed by staining with a protein-binding dye, sulforhodamine B (SRB), which binds to the basic amino acids of cellular macromolecules. The solubilized stain was measured spectrophotometrically.

DU-145 = assay: Human cancer cell line studies, DU-145; type: cell-based; conditions: Prostate DU-145
Procedure: as §1

FADU = assay: Human cancer cell line studies, FADU; type: cell-based; conditions: Pharynx-sqam FADU
Procedure: as §1

BXPC-3 = assay: Human cancer cell line studies, BXPC-3; type: cell-based; conditions: Pancreas adn BXPC-3
Procedure: as §1

tubulin = tested on: T1, tubulin; assay: Tubulin polymerization assay; type: biochemical, bovine; conditions: for IC50: purified tubulin […], GTP-induced, 350 nm, final steady-state number for compounds other than 1A and 10A, read-out: IC50 for inhibition of tubulin polymerization
T1 construct: Purified tubulin is obtained from bovine brain cells as described in Hamel and Lin
Procedure: The ability of the various above described compounds to inhibit tubulin polymerization can be determined by in vitro assay. A suitable assay system is that described by Bai et al. A method for purifying tubulin from bovine brain cells is described by Hamel and Lin.
IC50 values for tubulin polymerization were determined according to the procedure described in Bai et al. Purified tubulin is obtained from bovine brain cells as described in Hamel and Lin. Various amounts of inhibitor were preincubated for 15 minutes at 37° C. with purified tubulin. After the incubation period, the reaction was cooled and GTP was added to induce tubulin polymerization. Polymerization was then monitored in a Gilford spectrophotometer at 350 nm. The final reaction mixtures (0.25 ml) contained 1.5 mg/ml tubulin, 0.6 mg/ml microtubule-associated proteins (MAPs), 0.5 mM GTP, 0.5 mM MgCl2, 4% DMSO and 0.1 M 4-morpholineethanesulfonate buffer (MES, pH 6.4). […]

SK-N-SH = assay: Human cancer cell line studies, SK-N-SH; type: cell-based; conditions: Neuroblast SK-N-SH
Procedure: as §1

NCI-H460 = assay: Growth inhibitory activity, human cancer cell line NCI-H460 (SRB); type: cell-based; conditions: Lung-NSC NCI-H460
Procedure: as §1

P388 leukemia cells = assay: Cytotoxic assay with P388 leukemia cells; type: cell-based, mouse
From the text: The tubulin polymerization compounds can also be tested for their ability to inhibit tumor cell growth.

[1] = Homo sapiens, SW-1736, read-out: GI50
[2] = P388 mouse leukemia, dosage required to inhibit 50% of cell growth
[3] = Mus musculus, P388, read-out: ED50

Structure (SMILES) | GI50 (SW1736; [1]) [µg/mL] | GI50 (DU-145; Homo sapiens, read-out: GI50) [µg/mL] | GI50 (FADU; Homo sapiens, read-out: GI50) [µg/mL] | GI50 (BXPC-3; Homo sapiens, read-out: GI50) [µg/mL] | IC50 (tubulin) [µM] | GI50 (SK-N-SH; Homo sapiens, read-out: GI50) [µg/mL] | GI50 (NCI-H460; Homo sapiens, read-out: GI50) [µg/mL] | other results
COc1ccc(-c2sc3cc(OC)ccc3c2C(=O)/C=C/c2cc(OC)c(OC)c(OC)c2)cc1 [Compound 17A, E-3-[3′-(3′,4′,5′-trimethoxyphenyl)cinnamoyl]-2-(4′-methoxyphenyl)-6-methoxybenzo[b]thiophene] | 5.2 (≈ 10.6 µM) | 7.5 (≈ 15.3 µM) | 1.8 (≈ 3.67 µM) | 2.3 (≈ 4.69 µM) | > 40 | 1.3 (≈ 2.65 µM) | 3.9 (≈ 7.95 µM) | 
COc1ccc(-c2sc3cc(OC)ccc3c2C(=O)c2ccc(N(C)C)cc2)cc1 [Compound 11A, 3-(4′-N,N-dimethylaminobenzoyl)-2-(4′-methoxyphenyl)-6-methoxybenzo[b]thiophene] | > 10 | > 10 | > 10 | > 10 | > 40 | > 10 | > 10 | 
COc1ccc(/C=C\c2cc(OC)c(OC)c(OC)c2)cc1N [Compound 33E, (Z)-1-(3′-amino-4′-methoxyphenyl)-2-(3″,4″,5″-trimethoxyphenyl)ethene] | < 0.001 | 0.00096 (≈ 0.00304 µM) | < 0.001 | 0.0013 (≈ 0.00412 µM) | […] | < 0.001 | 0.00068 (≈ 0.00216 µM) | 
COc1ccc(-c2sc3ccccc3c2C(=O)c2cc(OC)c(OC)c(OC)c2)cc1 [Compound 16A, 3-(3′,4′,5′-trimethoxybenzoyl)-2-(4′-methoxyphenyl)-benzo[b]thiophene] | 4.6 (≈ 10.6 µM) | 4.8 (≈ 11 µM) | 0.63 (≈ 1.45 µM) | 1.7 (≈ 3.91 µM) | > 40 | 0.83 (≈ 1.91 µM) | 2.7 (≈ 6.21 µM) | 
COc1ccc(-c2sc3cc(OC)ccc3c2C(=O)c2c(OC)cccc2OC)cc1 [Compound 2A, 3-(2′,6′-dimethoxybenzoyl)-2-(4′-methoxyphenyl)-6-methoxybenzo[b]thiophene] |  |  |  |  |  |  |  | activity against P388 leukemia cells (P388 leukemia cells): failed to show measurable activity against the leukemia cells; ED50 (P388 leukemia cells; [2]): >100 µg/mL; IC50 (P388 leukemia cells; P388 mouse leukemia, dosage required to inhibit 50% of cell growth, read-out: ED50 (the source's name)): > 100 µg/mL; tubulin polymerization inhibition (tubulin): no observable tubulin polymerization inhibition activity
COc1ccc(/C=C\c2cc(OC)c(OC)c(OC)c2)cc1N(Cc1ccccc1)Cc1ccccc1 [5-[(Z)-2-(3′,4′,5′-trimethoxyphenyl)ethenyl]-2-methoxy-N,N-bis-(phenylmethyl)aniline, reference compound] |  |  |  |  |  |  |  | ED50 (P388 leukemia cells; [2]): 33.9 µg/mL (≈ 68.4 µM)
COc1ccc(-c2sc3cc(OC)ccc3c2C(=O)c2c(F)c(F)c(F)c(F)c2F)cc1 [Compound 15A, 3-(2′,3′,4′,5′,6′-pentafluorobenzoyl)-2-(4′-methoxyphenyl)-6-methoxybenzo[b]thiophene] | 4 (≈ 8.61 µM) | 5 (≈ 10.8 µM) | 1.3 (≈ 2.8 µM) | 5.9 (≈ 12.7 µM) | > 40 | 1.4 (≈ 3.01 µM) | 7.9 (≈ 17 µM) | 
COc1ccc2c(c1)CCC=C2C(=O)c1cc(OC)c(OC)c(OC)c1 [Compound 26D, 1-(3′,4′,5′-trimethoxybenzoyl)-6-methoxy-3,4-dihydronaphthalene] | 0.0048 (≈ 0.0135 µM) | 0.0038 (≈ 0.0107 µM) | 0.0013 (≈ 0.00367 µM) | 0.003 (≈ 0.00846 µM) | 1.7 | < 0.001 | 0.0033 (≈ 0.00931 µM) | tubulin polymerization curve at 4 μM (tubulin; 4 μM): total flat
COc1ccc(-c2sc3cc(OC)ccc3c2C(=O)c2cc(F)c(F)c(F)c2)cc1 [Compound 14A, 3-(3′,4′,5′-trifluorobenzoyl)-2-(4′-methoxyphenyl)-6-methoxybenzo[b]thiophene] | > 10 | > 10 | 13.6 (≈ 31.7 µM) | > 10 | > 40 | > 10 | > 10 | 
COc1cc(/C=C\c2cc(OC)c(OC)c(OC)c2)ccc1[N+](=O)[O-] [Compound 27E, (Z)-1-(3′-methoxy-4′-nitrophenyl)-2-(3″,4″,5″-trimethoxyphenyl) ethene] | 3.3 (≈ 9.56 µM) | 2.6 (≈ 7.53 µM) | 1.1 (≈ 3.19 µM) | 1.9 (≈ 5.5 µM) | > 40 | 2.1 (≈ 6.08 µM) | 2.3 (≈ 6.66 µM) | 
COc1ccc2c(c1)CCC=C2c1cc(OC)c(OC)c(OC)c1CO [Compound 25D, 1-(hydroxymethyl-3′,4′,5′-trimethoxyphenyl)-6-methoxy-3,4-dihydronaphthalene] | 2.1 (≈ 5.89 µM) | 2.6 (≈ 7.29 µM) | 0.51 (≈ 1.43 µM) | 0.53 (≈ 1.49 µM) | > 40 | 0.3 (≈ 0.842 µM) | 1.5 (≈ 4.21 µM) | 
COc1ccc(-c2sc3cc(OC)ccc3c2C(=O)c2cc(OC)cc(OC)c2)cc1 [Compound 3A, 3-(3′,5′-dimethoxybenzoyl)-2-(4′-methoxyphenyl)-6-methoxybenzo[b]thiophene] |  |  |  |  |  |  |  | activity against P388 leukemia cells (P388 leukemia cells): failed to show measurable activity against the leukemia cells; IC50 (P388 leukemia cells; [3]): > 100 µg/mL; ED50 (P388 leukemia cells; [2]): >100 µg/mL; tubulin polymerization inhibition (tubulin): no observable tubulin polymerization inhibition activity
COc1cc(/C=C\c2cc(OC)c(OC)c(OC)c2)ccc1N=[N+]=[N-] [Compound 30E, (Z)-1-(4′azido-3′-methoxyphenyl)-2-(3″,4″,5″-trimethoxyphenyl)ethene] | 0.45 (≈ 1.32 µM) | 0.7 (≈ 2.05 µM) | 0.42 (≈ 1.23 µM) | 0.3 (≈ 0.879 µM) | 1.5 | 0.24 (≈ 0.703 µM) | 0.35 (≈ 1.03 µM) | 
CCOc1c(OC)cc(C(=O)c2c(-c3ccc(OC)cc3)sc3cc(OC)ccc23)cc1OC [Compound 10A, 3-(4′-ethoxy-3′,5′-dimethoxybenzoyl)-2-(4′-methoxyphenyl)-6-methoxybenzo[b]thiophene] | 0.31 (≈ 0.648 µM) | 0.35 (≈ 0.731 µM) | 0.31 (≈ 0.648 µM) | 0.22 (≈ 0.46 µM) |  | 0.17 (≈ 0.355 µM) | 0.32 (≈ 0.669 µM) | tubulin polymerization inhibition (tubulin): clear inhibition of tubulin polymerization of rate, but not of plateau; polymerization curves at several concentrations (tubulin; 4, 10, and 40 μM): nearly identical
COc1ccc(/C=C\c2cc(OC)c(OC)c(OC)c2)cc1[N+](=O)[O-] [Compound 31E, (Z)-1-(4″-methoxy-3″-nitrophenyl)-2-(3′,4′,5′-trimethoxyphenyl)ethene] |  |  |  |  |  |  |  | ED50 (P388 leukemia cells; [2]): 4.0 µg/mL (≈ 11.6 µM); GI50 (SW1736): 0.056 µg/mL (≈ 0.162 µM); GI50 (DU-145): 0.046 µg/mL (≈ 0.133 µM); GI50 (FADU): 2.6 µg/mL (≈ 7.53 µM); GI50 (BXPC-3): 0.037 µg/mL (≈ 0.107 µM); GI50 (SK-N-SH): >10 µg/mL; GI50 (NCI-H460): 0.043 µg/mL (≈ 0.125 µM)
COc1ccc(-c2sc3cc(OC)ccc3c2C(=O)c2cc(OC)c(O)c(OC)c2)cc1 [Compound 19A, 3-(4′-hydroxy-3′,5′-dimethoxybenzoyl)-2-(4′-methoxyphenyl)-6-methoxybenzo[b]thiophene] |  |  |  |  |  |  |  | activity against P388 leukemia cells (P388 leukemia cells): failed to show measurable activity against the leukemia cells; IC50 (P388 leukemia cells; [3]): > 100 µg/mL; ED50 (P388 leukemia cells; [2]): >100 µg/mL; tubulin polymerization inhibition (tubulin): no observable tubulin polymerization inhibition activity
COc1ccc(-c2cc3c(OC)ccc(C(=O)c4cc(OC)c(OC)c(OC)c4)c3s2)cc1 [Compound 13A, 7-(3′,4′,5′-trimethoxybenzoyl)-2-(4′-methoxyphenyl)-4-methoxybenzo[b]thiophene] | > 10 | > 10 | 7.8 (≈ 16.8 µM) | > 10 | > 40 | > 10 | > 10 | 
CCOc1ccc(-c2sc3cc(OCC)ccc3c2C(=O)c2cc(OC)c(OC)c(OC)c2)cc1 [Compound 18A, 3-(3′,4′,5′-trimethoxybenzoyl)-2-(4′-ethoxyphenyl)-6-ethoxybenzo[b]thiophene] | 2.3 (≈ 4.67 µM) | 3.6 (≈ 7.31 µM) | 0.6 (≈ 1.22 µM) | 1.6 (≈ 3.25 µM) | > 40 | 0.33 (≈ 0.67 µM) | 1.4 (≈ 2.84 µM) | 
COc1ccc(-c2cc3c(OC)ccc(C(=O)c4cc(F)c(F)c(F)c4)c3s2)cc1 [Compound 12A, 7-(3′,4′,5′-trifluorobenzoyl)-2-(4′-methoxyphenyl)-4-methoxybenzo[b]thiophene] | > 10 | > 10 | 6.7 (≈ 15.6 µM) | > 10 | > 40 | > 10 | > 10 | 
